In patent US20180179198A1, “TRICYCLIC MODULATORS OF TNF SIGNALING” (AbbVie Inc., priority 2015, published 2018):

target: TNFα trimer (Homo sapiens, UniProt P01375); test: TNFα FP Competitive Binding Assay; settings: TNFα FP competitive binding assay; class symbols A/B/C; read-out: TNF IC50
Experimental: TNFα FP Competitive Binding Assay
• 1. Assay Buffer: Prepare 1× Assay Buffer (Water with 47 mM HEPES, 47 mM NaCl, 0.9 mM EDTA, 0.0071% Triton X-100) by adding 25 mL of 1 M HEPES, 5 mL of 5 M NaCl, 1 mL of 0.5 M EDTA, and 375 μL of a 10% Triton X-100 stock to a fresh 500 mL bottle of water. • 2. Assay Mixture: Prepare fresh Assay Mixture containing 20 nM TNFα trimer (60 nM protein) and 1 nM 2′,7′-difluoro-3′,6′-dihydroxy-N-(2-(2-(2-((4-(isoquinolin-8-yl)-3-(4-(isoquinolin-8-yl)phenethoxy)benzyl)oxy)ethoxy)ethoxy)ethyl)-3-oxo-3H-spiro[isobenzofuran-1,9′-xanthene]-5-carboxamide probe in 1× Assay Buffer.
Compound Plate Preparation
Manual 12-point 1:3 Dilution Plates: (384 well polypropylene plates)
Top concentration of compounds, 10 mM in DMSO, dispensed in rows A-O in columns 1 and 13. Compounds are serially diluted 1:3 with DMSO in columns 2-12 or 14-24 using a 16-channel Matrix pipettor. Plates stored at −20° C.
Discovery Preps 12-point 1:3 Dilution Plates: (384 well assay plates)
Top concentration, 5 mM in DMSO, of compounds placed in rows A-O in columns 1 and 13. Compounds are serially diluted 1:3 with DMSO in columns 2-12 or 14-24. Compound solutions are dispensed into replicate assay plates at 410 nL per well. Plates stored at 4° C.
TNFα FP Competitive Binding Assay Protocol
• 1. Compound plates are warmed to rt. • 2. Fresh Assay Mixture is prepared. • 3. Assay Mixture (20 μL) is dispensed each well of 384 assay plates using a Thermo Multidrop Combi or 16-channel Matrix pipettor. If Manual 12-point 1:3 Dilution Plates are to be tested, Assay Mix is dispensed into empty plates. Discovery Preps 12-point 1:3 Dilution Plates already contain 410 nL compound solution in DMSO. • 4. For Manual 12-point 1:3 Dilution Plates, 0.7 μL is manually transferred using a 16-channel Matrix pipettor to replicate assay plates containing 20 μL Assay Mixture for a final top compound concentration of 338 μM (3.4% DMSO). • 5. For Discovery Preps 12-point 1:3 Dilution Plates, 20 μL Assay Mixture added the 410 nL compound solution already in the plates yields a final top compound concentration of 100 μM (2.0% DMSO). • 6. Background subtraction controls are wells P1-P8 containing only Assay Buffer. The low % inhibition controls are wells P9-P16 containing only Assay Mix. The high % inhibition are wells P17-P24 containing only 1 nM 2′,7′-difluoro-3′,6′-dihydroxy-N-(2-(2-(2-((4-(isoquinolin-8-yl)-3-(4-(isoquinolin-8-yl)phenethoxy)benzyl)oxy)ethoxy)ethoxy)ethyl)-3-oxo-3H-spiro[isobenzofuran-1,9′-xanthene]-5-carboxamide probe in 1× Assay Buffer. • 7. Plates are incubated at […] for 18-24 h in 37° C. incubator (CO2 is off). • 8. Prior to reading the assay, the plates are placed in a dark cabinet to equilibrate at rt for one hour. • 9. Background-subtracted fluorescence polarization (mP) is measured using a PerkinElmer Envision plate reader. • 10. Raw data is entered into Assay Explorer and dose-response curves are generated using a variable slope curve.

TNFα trimer, sequence (P01375 77-233 limits assumed): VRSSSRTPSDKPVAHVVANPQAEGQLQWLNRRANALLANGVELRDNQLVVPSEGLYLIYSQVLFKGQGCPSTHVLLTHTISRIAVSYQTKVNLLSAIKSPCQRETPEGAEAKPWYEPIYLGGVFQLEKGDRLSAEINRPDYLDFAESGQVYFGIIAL

Compound | IC50 [µM]
COc1ccccc1[C@H]1CCc2nc3ccc(-c4cnc(N5CCN(C(=O)CO)[C@H](C)C5)nc4)nc3n21 [AO.4] | < 1
OC1(c2ncc(-c3ccc4nc5n(c4c3)[C@@H](c3ccccc3)CC5)cn2)CCC1 [AA.2] | < 1
c1ccc2c(c1)OCC21COCc2nc3ccc(-c4cnc(NC5CCOC5)nc4)nc3n21 (stereo not drawn) [AU.3] | 1 to 10
c1ccc2c(c1)CCC21COCc2nc3ccc(-c4cnc(N5CCCOCC5)nc4)nc3n21 (stereo not drawn) [AV.3] | < 1
OCC1(F)CCN(c2ncc(-c3ccc4nc5n(c4n3)C3(CCc4ccccc43)COC5)cn2)CC1 (stereo not drawn) [AV.7] | < 1
OC1CCN(c2ncc(-c3ccc4nc5n(c4n3)C(c3ccccc3)COC5)cn2)CC1 (stereo not drawn) [AZ.2] | < 1
CC(O)C(=O)N1CCN(c2ncc(-c3ccc4nc5n(c4n3)C(c3ccccc3)COC5)cn2)CC1 (stereo not drawn) [AZ.6] | 1 to 10
OCC1CCCN(c2ncc(-c3ccc4nc5n(c4n3)C3(CCc4ccccc43)COC5)cn2)C1 (stereo not drawn) [AV.1] | < 1
CC(C)Nc1ncc(-c2ccc3nc4n(c3n2)C2(CCOc3ccccc32)COC4)cn1 (stereo not drawn) [BA.5] | 1 to 10
COc1ccccc1[C@@H]1CCc2nc3ccc(-c4cnc(N5CCN6C(=O)NC[C@@H]6C5)nc4)nc3n21 [AP.1] | 1 to 10
OC1CCCC(Oc2cc(-c3ccc4nc5n(c4n3)[C@@H](c3ccccc3)CC5)ccn2)C1 (stereo partly drawn) [AQ.4] | 1 to 10
C1=C(c2ccc3nc4n(c3n2)C2(COC4)COc3ccccc32)CNC1 (stereo not drawn) [BF.1] | 1 to 10

Continued, values first:

IC50 [µM] | Compound
1 to 10 | N#Cc1ncc(-c2ccc3nc4n(c3c2)C(c2ccccc2)COC4)cn1 (stereo not drawn) [T.15]
10 to 100 | Cn1cnc2cc(-c3ccc4nc5n(c4c3)C(c3ccccc3)COC5)cnc21 (stereo not drawn) [T.32]
1 to 10 | N#Cc1ccc(-c2ccc3nc4n(c3c2)C(c2ccccc2)COC4)cn1 (stereo not drawn) [T.16]
1 to 10 | Cc1cc(-c2ccc3nc4n(c3c2)C(c2ccccc2)COC4)cnc1N1CCN(C)CC1 (stereo not drawn) [T.34]

same assay, conditions: Table BK; read-out: TNF IC50

IC50 [µM] | Compound
1 to 10 | O[C@H]1CC[C@H](COc2cc(-c3ccc4nc5n(c4n3)[C@@H](c3ccccc3)CC5)ccn2)CC1 [BK.2]

same assay, conditions: Table BO; read-out: TNF IC50

IC50 [µM] | Compound
< 1 | O=C1NC[C@@H]2CN(c3ncc(-c4ccc5nc6n(c5n4)C4(COCc5ccccc54)COC6)cn3)CCN12 (stereo partly drawn) [BO.2]

same assay, conditions: fluorescence polarization competition; 20 nM TNFα trimer, 1 nM OregonGreen488 probe; read-out: TNF IC50 (TNFα FP binding assay IC50)

Compound | IC50 [µM]
CC(C)(O)c1ncc(-c2ccc3nc4n(c3n2)[C@](C)(c2ccccc2)CC4)cn1 [(S)-2-(5-(8-methyl-8-phenyl-7,8-dihydro-6H-pyrrolo[2′,1′:2,3]imidazo[4,5-b]pyridin-2-yl)pyrimidin-2-yl)propan-2-ol] | 10 to 100
O=C(NCC1CCCO1)c1ccc(-c2ccc3nc4n(c3c2)C(c2ccccc2)CC4)cc1 (stereo not drawn) [A.26] | 1 to 10
CN(C)C(=O)c1cccc(-c2ccc3nc4n(c3c2)C(c2ccccc2)CC4)c1 (stereo not drawn) [A.29] | 10 to 100
C[C@@]1(c2ccccc2)CCc2nc3ccc(-c4cnc(N5CCC(O)CC5)nc4)nc3n21 [(S)-1-(5-(8-methyl-8-phenyl-7,8-dihydro-6H-pyrrolo[2′,1′:2,3]imidazo[4,5-b]pyridin-2-yl)pyrimidin-2-yl)piperidin-4-ol] | 10 to 100
1-((R)-4-(5-((R)-8-(3-(Hydroxymethyl)phenyl)-7,8-dihydro-6H-pyrrolo[2′,1′:2,3]imidazo[4,5-b]pyridin-2-yl)pyrimidin-2-yl)-2-methylpiperazin-1-yl)ethanone [Example 45] | 1 to 10
Cc1cc(-c2ccc3nc4n(c3c2)C(c2ccccc2)CC4)ccn1 (stereo not drawn) [A.13] | 1 to 10
CS(=O)(=O)NCc1cccc(-c2ccc3nc4n(c3c2)C(c2ccccc2)CC4)c1 (stereo not drawn) [A.42] | 1 to 10
C[C@]1(c2ccccc2)CCc2nc3ccc(-c4cnc(N5CCC(O)CC5)nc4)nc3n21 [(R)-1-(5-(8-methyl-8-phenyl-7,8-dihydro-6H-pyrrolo[2′,1′:2,3]imidazo[4,5-b]pyridin-2-yl)pyrimidin-2-yl)piperidin-4-ol] | < 1
Cn1ccc(-c2ccc3nc4n(c3c2)C(c2ccccc2)CC4)c1 (stereo not drawn) [A.47] | 10 to 100
Cc1ncccc1-c1ccc2nc3n(c2c1)C(c1ccccc1)CC3 (stereo not drawn) [A.32] | 10 to 100
COc1ccccc1[C@@H]1CCc2nc3ccc(-c4cnc(C(C)(C)O)nc4)cn3c21 [Example 11, (S)-2-(5-(1-(2-Methoxyphenyl)-2,3-dihydro-1H-cyclopenta[4,5]imidazo[1,2-a]pyridin-7-yl)pyrimidin-2-yl)propan-2-ol] | 10 to 100
CCS(=O)(=O)c1ccc(-c2ccc3nc4n(c3c2)C(c2ccccc2)CC4)cn1 (stereo not drawn) [A.9] | < 1
c1ccc(C2CCc3nc4ccc(-c5cnc(N6CCOCC6)nc5)nc4n32)cc1 (stereo not drawn) [Example 6, 4-(5-(8-Phenyl-7,8-dihydro-6H-pyrrolo[2′,1′:2,3]imidazo[4,5-b]pyridin-2-yl)pyrimidin-2-yl)morpholine] | < 1

Second part, the compound after the results:

IC50 [µM] | Compound
1 to 10 | Cc1c(F)cccc1C1(O)CCCc2nc3ccc(-c4cnc(N5CCOCC5)nc4)cn3c21 (stereo not drawn) [I.5]
1 to 10 | OCCCN1CCN(c2ncc(-c3ccc4nc5n(c4c3)[C@@H](c3ccccc3)COC5)cn2)CC1 [G.5]
1 to 10 | Cc1ccc(C2(O)CCCc3nc4ccc(-c5cnc(N6CCOCC6)nc5)cn4c32)cc1 (stereo not drawn) [I.8]
1 to 10 | O=c1cc(-c2ccc3nc4n(c3n2)[C@@H](c2ccccc2)CC4)ccn1CC1CCC(F)(F)CC1 [Example 53, (R)-1-((4,4-Difluorocyclohexyl)methyl)-4-(8-phenyl-7,8-dihydro-6H-pyrrolo[2′,1′:2,3]imidazo[4,5-b]pyridin-2-yl)pyridin-2(1H)-one]
1 to 10 | O=C(O)C1CCN(c2ncc(-c3ccc4nc5n(c4c3)C(c3ccccc3)COC5)cn2)CC1 (stereo not drawn) [Example 22, 1-(5-(4-Phenyl-3,4-dihydro-1H-benzo[4,5]imidazo[2,1-c][1,4]oxazin-7-yl)pyrimidin-2-yl)piperidine-4-carboxylic acid]
< 1 | OC1CCN(c2ncc(-c3ccc4nc5n(c4n3)C3(COC5)COc4ccccc43)cn2)CC1 (stereo not drawn) [Example 50, 1-(5-(6′,8′-Dihydro-2H-spiro[benzofuran-3,9′-pyrido[3′,2′:4,5]imidazo[2,1-c][1,4]oxazin]-2′-yl)pyrimidin-2-yl)piperidin-4-ol]
1 to 10 | Cc1ccc(C2(O)CCCCc3nc4ccc(-c5cnc(N6CCOCC6)nc5)cn4c32)cc1 (stereo not drawn) [J.7]
1 to 10 | CC(C)(O)c1ncc(-c2ccc3nc4n(c3n2)C2(COC4)CC(=O)c3ccccc32)cn1 (stereo not drawn) [Example 69, 2′-(2-(2-Hydroxypropan-2-yl)pyrimidin-5-yl)-6′,8′-dihydrospiro[indene-1,9′-pyrido[3′,2′:4,5]imidazo[2,1-c][1,4]oxazin]-3(2H)-one]
1 to 10 | COc1ccccc1C1CCCc2nc3ccc(-c4ccc(C(=O)O)s4)cn3c21 (stereo not drawn) [Example 23, 5-(9-(2-Methoxyphenyl)-6,7,8,9-tetrahydrobenzo[4,5]imidazo[1,2-a]pyridin-2-yl)thiophene-2-carboxylic acid]
< 1 | COc1ccccc1C1CCCc2nc3ccc(-c4cnc(N5CCOCC5)nc4)cn3c21 (stereo not drawn) [Example 15, 4-(5-(9-(2-Methoxyphenyl)-6,7,8,9-tetrahydrobenzo[4,5]imidazo[1,2-a]pyridin-2-yl)pyrimidin-2-yl)morpholine]
1 to 10 | FC(F)(F)C1CN(c2ncc(-c3ccc4nc5n(c4c3)[C@@H](c3ccccc3)COC5)cn2)CCO1 (stereo partly drawn) [G.15]
< 1 | O=C1NCC2CN(c3ncc(-c4ccc5nc6n(c5c4)C(c4ccccc4C(F)(F)F)COC6)cn3)CCN12 (stereo not drawn) [Example 35, 7-(5-(4-(2-(Trifluoromethyl)phenyl)-3,4-dihydro-H-benzo[4,5]imidazo[2,1-c][1,4]oxazin-7-yl)pyrimidin-2-yl)hexahydroimidazo[1,5-a]pyrazin-3(2H)-one]
1 to 10 | c1ccc(C2OCCc3nc4ccc(-c5cnc(N6CCOCC6)nc5)nn4c32)cc1 (stereo not drawn) [Example 56, 2-(2-morpholinopyrimidin-5-yl)-9-phenyl-7,9-dihydro-6H-pyrano[4′,3′:4,5]imidazo[1,2-b]pyridazine]
< 1 | OCC1CN(c2ncc(-c3ccc4nc5n(c4c3)[C@@H](c3ccccc3)COC5)cn2)CCO1 (stereo partly drawn) [G.35]
